Test [1] relates to Cricetinae gen. sp. Briefly: Effect at an oral dose of 0.1 mg/kg/day for 14 days on serum cholesterol level of hamster. The format is functional, Cricetulus griseus.
For test [2], the system named is Cricetinae gen. sp. Briefly: Effect at an oral dose of 0.3 mg/kg/day for 14 days on serum cholesterol level of hamster. The format is functional, Cricetulus griseus.
Test [3] has as its system Cricetinae gen. sp. Kind of test: Effect at an oral dose of 0.1 mg/kg/day for 14 days on serum triglyceride level of hamster. The format is functional, Cricetulus griseus.
Test [4] concerns Canis familiaris. Kind of test: Effect on cholesterol lowering in male Beagle dog at an oral dose of 0.3 mkd for 3 days.
Test [5] concerns Canis familiaris. Briefly: Effect on cholesterol lowering in male Beagle dog at an oral dose of 0.01 mkd for 7 days.
Test [6] deals with Canis familiaris. Kind of test: Effect on cholesterol lowering in male Beagle dog at an oral dose of 0.03 mkd for 7 days.
For test [7], the system named is Canis familiaris. Kind of test: Effect on cholesterol lowering in male Beagle dog at an oral dose of 0.3 mkd for 10 days.
Test [8] relates to Canis familiaris. Kind of test: Effect on cholesterol lowering in male Beagle dog at an oral dose of 0.03 mkd for 15 days.
The subject of test [9] is Canis familiaris. Briefly: Effect on cholesterol lowering in male Beagle dog at an oral dose of 0.3 mkd for 7 days with 4 mkd simavastatin.
In test [10] the test system is Canis familiaris. Kind of test: Effect on cholesterol lowering in male Beagle dog at an oral dose of 0.3 mkd for 3 days with 4 mkd simavastatin.
Test [11] relates to Canis familiaris. Briefly: Effect on cholesterol lowering in male Beagle dog at an oral dose of 0.3 mkd for 10 days with 4 mkd simavastatin.
Test [12] concerns Canis familiaris. Kind of test: Effect on cholesterol lowering in male Beagle dog at an oral dose of 0.3 mkd for 15 days with 4 mkd simavastatin.

Drawing on ChEMBL document CHEMBL1144356 (J Med Chem, 2005), this text covers TC and TG for one molecule.

In the case of `CC[C@@]1(C(=O)O)Cc2cc(OCCCOc3ccc(OC(F)(F)F)cc3Cl)ccc2O1`, the TC in the test on Cricetinae gen. sp. [1] is -15%; in the test with Cricetinae gen. sp. [2], -30%; in the test with Canis familiaris [4], -10.1%; in the test on Canis familiaris [5] it was -7.2%; in the test with Canis familiaris [6], -11.2%; in the test with Canis familiaris [7] it was -20.5%. The TC in the test on Canis familiaris [8] is recorded as -24.3%; with Canis familiaris [9], -27.8%; in the test on Canis familiaris [10], -14.2%; in the test on Canis familiaris [11] it was -36.9%; with Canis familiaris [12] it was -39.7%. The TG in the test on Cricetinae gen. sp. [3] was -11.78%.
